Results taken from patent US20260014226A1, “STABLE READY TO DILUTE COMPOSITION OF CARFILZOMIB” (Kashiv BioSciences, LLC, priority 2021, published 2026).

System: diluted blood (red blood cell)
Type: cell-based, Human
Method: The term “hemolytic potential’ refers to ability of fluid to degrade the red blood cell and releases hemoglobin. The hemolytic potential is measured as release of hemoglobin from blood cells. • Blank, Negative and Positive Control • Blank: Diluted Blood • Negative control (Vehicle): 0.9% Sodium chloride (Normal Saline) is isotonic with Human blood. • Positive control: 5% Saponin was used as positive control Required quantity of blood was collected into K2 EDTA vials and immediately mixed well, this was used for the study within 24 hours of blood collection. The blood was maintained at ambient room temperature before use. Hemoglobin was determined using Advia 2120i heamtology system for this purpose, concentrations will be determined twice, before and after dilution. A separate aliquot of blood was centrifuged, and plasma was analyzed for hemoglobin to ensure blood was not hemolyzed before the study. Hemoglobin standard solutions was prepared using human hemoglobin. Initially, a stock solution of 180 mg hemoglobin/mL was prepared in Drabkin's reagent by dissolving the hemoglobin powder in Drabkin's reagent. The working standards of at least 6 different concentrations was prepared in Drabkin's reagent and was read in plate reader at 540 nm wavelength. […]

For Saponin [Positive control], the “% Hemolysis” value was 100.00%.
